Laboratory results from patent publication US6403602B1 (priority 1997, dated 2002).
Where a name gives a salt, the structure may show the parent alone. Read-outs that look alike come from different tables or passages of the source.

Key:
mu opioid receptors = mu opioid receptors (Cavia porcellus, UniProt A0ACM8Q262); format: binding, guinea pig; conditions: read-out: Ki μ [^3H]DAMGO
delta receptors [1] = target: T1, delta receptors (Cavia porcellus, UniProt A0A286XTF2); assay: biochemical; format: binding, guinea pig
T1 construct: The brains were then homogenized in 50 mM Tris HCl, buffer pH 7.7, using a Polytron; from tissue; host or cells: guinea pig brain homogenate (membrane pellet)

κ2 sites = format: binding, guinea pig
kappa3 receptors = format: binding, guinea pig; conditions: read-out: Ki κ3 [^3H]NalBzoH
[2] = system: electrically stimulated guinea pig ileum; assay: tissue or blood; format: cell-based
mu receptors = format: cell-based, guinea pig
kappa receptors = target: T2, kappa receptors (Cavia porcellus, UniProt P41144); format: cell-based, guinea pig
T2 construct: The longitudinal muscle with the myenteric plexus attached was gently separated from the underlying circular muscle; from tissue; host or cells: guinea pig ileum longitudinal muscle with myenteric plexus

[3] = system: electrically stimulated mouse vas deferens; assay: tissue or blood; format: cell-based
delta receptors [4] = target: T3, delta receptors (Mus musculus, UniProt P32300); format: cell-based
T3 construct: The vas deferens from Swiss-Webster mice (30-35 g) were prepared as described by Hughes et al; from tissue; host or cells: mouse vas deferens (Swiss-Webster)

[5] = read-out: Guinea Pig Ileum IC50
[6] = read-out: Mouse Vas Deferens IC50
[7] = Cavia porcellus, read-out: Guinea Pig Ileum IC50 (nM)

T2 sequence (P41144 whole entry): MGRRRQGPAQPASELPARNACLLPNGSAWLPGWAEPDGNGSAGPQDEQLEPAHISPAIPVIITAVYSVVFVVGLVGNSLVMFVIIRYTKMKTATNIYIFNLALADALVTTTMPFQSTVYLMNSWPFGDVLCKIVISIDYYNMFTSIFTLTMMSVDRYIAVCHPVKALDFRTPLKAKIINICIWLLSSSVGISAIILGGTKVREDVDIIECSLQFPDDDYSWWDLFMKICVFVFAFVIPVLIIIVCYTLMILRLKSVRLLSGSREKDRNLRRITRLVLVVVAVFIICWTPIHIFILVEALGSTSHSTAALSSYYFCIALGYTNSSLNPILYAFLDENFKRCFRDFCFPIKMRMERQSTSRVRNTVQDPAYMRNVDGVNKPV
Chain of mu opioid receptors (A0ACM8Q262 1-400): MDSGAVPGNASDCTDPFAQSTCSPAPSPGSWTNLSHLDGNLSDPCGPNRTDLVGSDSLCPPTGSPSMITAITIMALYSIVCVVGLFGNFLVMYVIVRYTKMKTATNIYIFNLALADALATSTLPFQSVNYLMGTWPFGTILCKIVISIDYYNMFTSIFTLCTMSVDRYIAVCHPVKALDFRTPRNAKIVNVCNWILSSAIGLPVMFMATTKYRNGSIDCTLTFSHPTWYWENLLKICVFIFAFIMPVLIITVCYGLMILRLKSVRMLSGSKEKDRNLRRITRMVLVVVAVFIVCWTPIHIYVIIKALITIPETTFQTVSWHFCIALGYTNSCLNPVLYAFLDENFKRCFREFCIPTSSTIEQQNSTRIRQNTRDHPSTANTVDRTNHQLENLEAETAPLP
T1 sequence (A0A286XTF2 1-366): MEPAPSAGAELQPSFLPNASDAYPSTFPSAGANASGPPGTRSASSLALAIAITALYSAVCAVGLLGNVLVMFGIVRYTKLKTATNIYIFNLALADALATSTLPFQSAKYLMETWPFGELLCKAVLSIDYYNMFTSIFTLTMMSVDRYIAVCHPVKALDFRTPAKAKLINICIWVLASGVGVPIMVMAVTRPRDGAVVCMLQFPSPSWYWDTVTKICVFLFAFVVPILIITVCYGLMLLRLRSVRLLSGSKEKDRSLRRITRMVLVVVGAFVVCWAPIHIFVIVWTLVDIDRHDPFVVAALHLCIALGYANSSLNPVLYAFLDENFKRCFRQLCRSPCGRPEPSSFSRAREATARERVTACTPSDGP
T3 sequence (P32300 whole entry): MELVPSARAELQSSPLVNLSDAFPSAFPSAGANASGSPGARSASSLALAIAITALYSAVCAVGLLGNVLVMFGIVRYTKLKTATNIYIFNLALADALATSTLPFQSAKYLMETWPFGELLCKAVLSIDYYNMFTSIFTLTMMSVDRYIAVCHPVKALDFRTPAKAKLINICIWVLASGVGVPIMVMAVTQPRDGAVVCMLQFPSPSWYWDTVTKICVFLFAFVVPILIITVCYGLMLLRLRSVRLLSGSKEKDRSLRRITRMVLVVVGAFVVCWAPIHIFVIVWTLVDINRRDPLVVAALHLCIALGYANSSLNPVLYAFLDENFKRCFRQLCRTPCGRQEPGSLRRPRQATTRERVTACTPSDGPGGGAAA

| Compound | IC50 (κ2 sites) | Ki (kappa3 receptors) | Guinea Pig Ileum DR with CTAP (mu receptors) | Guinea Pig Ileum Ke of CTAP (mu receptors) | Guinea Pig Ileum DR with Nor-BNI (kappa receptors) | Guinea Pig Ileum Ke of Nor-BNI (kappa receptors) | further results |
| --- | --- | --- | --- | --- | --- | --- | --- |
| CCC12CCN(CC3CC3)C(C(=O)c3ccc(O)cc31)C2C (single isomer, unassigned; (+)) [(+)EKC-sulfonate] | 133 nM | 5.3 nM |  |  |  |  | Ki (mu opioid receptors): 1.1 nM; Ki (delta receptors [1]; read-out: Ki δ, experiment done with [^3H]DPDPE): 2.6 nM |
| Dynorphin (1-13)-OH | 180 nM | 15.4 nM |  |  |  |  |  |
| CC[C@H](C)[C@H](NC(=O)[C@H](C)NC(=O)[C@H](CC(N)=O)NC(=O)[C@H](CCCCN)NC(=O)[C@H](Cc1ccccc1)NC(=O)[C@H](CC(C)C)NC(=O)[C@@H](NC(=O)[C@@H](NC(=O)[C@H](CC(C)C)NC(=O)[C@@H]1CCCN1C(=O)[C@@H](NC(=O)[C@H](CCC(N)=O)NC(=O)[C@H](CO)NC(=O)[C@H](CCCCN)NC(=O)[C@H](CCC(=O)O)NC(=O)[C@H](CO)NC(=O)[C@@H](NC(=O)[C@H](CCSC)NC(=O)[C@H](Cc1ccccc1)NC(=O)CNC(=O)CNC(=O)[C@@H](N)Cc1ccc(O)cc1)[C@@H](C)O)[C@@H](C)O)C(C)C)[C@@H](C)O)C(=O)N[C@H](C(=O)N[C@@H](CCCCN)C(=O)N[C@@H](CC(N)=O)C(=O)N[C@@H](C)C(=O)N[C@@H](Cc1ccc(O)cc1)C(=O)N[C@@H](CCCCN)C(=O)N[C@@H](CCCCN)C(=O)NCC(=O)N[C@@H](CCC(=O)O)C(=O)O)[C@@H](C)CC [β-Endorphin-OH] | 2050 nM | 14.5 nM | 5.86 | 20.87 | 4.24 | 6.98 | IC50 [2, 5]: 59.4 nM; IC50 [3, 6]: 68 nM; Mouse Vas Deferens DR with Naltrindole (delta receptors [4]): 7.98; Mouse Vas Deferens Ke of Naltrindole (delta receptors [4]): 0.156 ± 0.05 |
| O=C1CC[C@@]2(O)[C@H]3Cc4ccc(O)c5c4[C@@]2(CCN3CC2CC2)[C@H]1O5 [Naltrexone-HCl] | 230 nM | 3.8 nM |  |  |  |  |  |
| CC(C)C[C@@H](NC(=O)[C@H](Cc1ccccc1)NC(=O)CNC(=O)[C@@H](C)NC(=O)[C@@H](N)Cc1ccc(O)cc1)C(=O)O [DADLE-OH] | > 10000 nM | 692 nM | 4.33 | 30.58 | 1.53 | 38.13 | Ki (delta receptors [1]): 0.3 nM; IC50 [2, 5]: 13.4 nM; IC50 [3, 6]: 1.6 nM |
| Dynorphin (1-13)-NH2 | 24.6 nM | 4.1 nM |  |  |  |  |  |
| 3-O-Acetyl-7,8-dihydromorphine-6-O-sulfate [NIDA # 20,265] | > 10000 nM |  | 6.03 ± 0.97 | 20.25 ± 3.92 |  |  | Ki (mu opioid receptors): 13.7 nM; Ki (delta receptors [1]; read-out: Ki δ [^3H]Cl-DPDPE): 325 nM; IC50 [2, 5]: 37.7 ± 6.55 nM; IC50 [3, 6]: 1110 nM; Mouse Vas Deferens DR with Naltrindole (delta receptors [4]): 0.924 ± 0.64 |
| Dynorphin (1-17)-OH | 29.5 nM | 5.1 nM |  |  |  |  |  |
| C[N+]1(C)CC[C@]23c4c5ccc(OC(=O)c6ccccc6)c4O[C@H]2[C@@H](OS(=O)(=O)[O-])C=C[C@H]3[C@H]1C5 [NIDA # 20,274, 3-O-Benzoyl-N-methylmorphinium-6-O-sulfate] | > 10000 nM | > 10000 nM |  |  |  |  | Ki (delta receptors [1]): > 10000 nM; inhibition at 100 µM ([2]; Cavia porcellus, read-out: Guinea pig ileum maximum inhibition): 38% |
| Dynorphin (1-8) | 1760 nM | 12.9 nM |  |  |  |  | IC50 ([2]; read-out: IC50 (nM), Guinea Pigs Ileum): 71.8 nM; DR with CTAP (mu receptors): 0.98; DR with Nor-BNI (kappa receptors): 18.44; Ke of Nor-BNI (kappa receptors): 1.21; Ratio (after Ke of Nor-BNI) (kappa receptors): 0.050; IC50 ([3]; read-out: IC50 (nM), Mouse Vas Deferens): 56.4 nM; DR with Naltrindole (delta receptors [4]): 2.77; Ke of Naltrindole (delta receptors [4]): 0.64; Ratio (after Ke of Naltrindole) (delta receptors [4]): 0.033 |
| CCC12CCN(CC3(O)CC3)C(Cc3ccc(O)cc31)C2(C)C (single isomer, unassigned; (+)) [(+)Bremazocine] | 11.2 nM | 0.1 nM |  |  |  |  | Ki (mu opioid receptors): 0.1 nM; Ki (delta receptors [1]; read-out: Ki δ [^3H]Cl-DPDPE): 0.7 nM |
| CC1(C)SSC(C)(C)[C@@H](NC(=O)[C@@H](N)Cc2ccc(O)cc2)C(=O)NCC(=O)N[C@@H](Cc2ccc(Cl)cc2)C(=O)N[C@H]1C(=O)O [DPDPE-Cl] | > 10000 nM | 1030 nM |  |  |  |  | Ki (delta receptors [1]; read-out: Ki δ [^3H]Cl-DPDPE): 0.3 nM |
| Oc1ccc2c3c1O[C@H]1[C@@H](O)C=C[C@H]4[C@@H](C2)NCC[C@@]341 [Normorphine] |  |  | 3.02 | 50.25 | 1.90 | 26.47 | IC50 [2, 7]: 47.3 nM; Guinea Pig Ileum Ratio (CTAP) (mu receptors): 0.500; Guinea Pig Ileum Ratio (Nor-BNI) (kappa receptors): 0.002; IC50 ([3]; Mus musculus, read-out: Mouse Vas Deferens IC50 (nM)): 512 nM; Mouse Vas Deferens DR with Naltrindole (delta receptors [4]): 1.06; Mouse Vas Deferens Ke of Naltrindole (delta receptors [4]): 8.38 ± 0; Mouse Vas Deferens Ratio (Naltrindole) (delta receptors [4]): 0.0025 |
| C=CCN1CC[C@]23c4c5ccc(O)c4O[C@H]2[C@@H](O)C=C[C@H]3[C@H]1C5 [Nalorphine] |  |  | 0.90 |  | 643.9 | 0.03 | IC50 [2, 7]: 29.2 nM |
| Leu-Enkephalin | > 10000 nM | 1670 nM | 4.63 | 29.38 | 1.94 | 21.41 | IC50 [2, 5]: 87.3 nM; Guinea Pig Ileum Ratio (CTAP) (mu receptors): 0.659; Guinea Pig Ileum Ratio (Nor-BNI) (kappa receptors): 0.002; IC50 [3, 6]: 7.38 nM; Mouse Vas Deferens DR with Naltrindole (delta receptors [4]): 28.07; Mouse Vas Deferens Ke of Naltrindole (delta receptors [4]): 0.038; Mouse Vas Deferens Ratio (Naltrindole) (delta receptors [4]): 0.577 |
